Reference: PubChem BioAssay AID179 (DTP/NCI, 2004)
Activity calls are given as the source filed them.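 The calls were made as follows: active = compounds giving half or more protection of infected cells from virus-caused growth loss, again on retest; inactive = the rest.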

Tested on: CEM cells HIV-1 protection, formazan growth assay
Experiment: NCI AIDS Antiviral Assay
Conditions: for IC50: measured here: growth of uninfected CEM cells
How it was run: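 Human CEM cells, uninfected and HIV-1-infected, exposed to five drug concentrations; growth measured by soluble formazan assay and scored as percent protection from infection, with protecting compounds retested.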

SMILES	EC50 [µM]	IC50 [µM]	outcome
COC(=O)CSc1n[nH]c(-c2ccc(O)c([N+](=O)[O-])c2)n1	> 115	> 115	
CC(=O)NC1(C)C(C)C2CC1C(C)C2(C)C (stereo not drawn)	> 85.1	> 85.1	
S=c1[nH]c(=S)c2nc(Nc3ccccc3)sc2[nH]1	> 617	> 617	
C[n+]1[se]c2ccccc2c1Cl	> 186	7.24	
CCOC(=O)CSc1nc2ccccc2c(=O)n1N	> 200	> 200	
COc1cc(C2SC(N)=Nc3c2c(C)nn3C(=O)c2ccc(Cl)cc2)ccc1O (stereo not drawn)	> 200	> 200	
COC(=O)N(C)C(C#N)CCc1ccccc1 (stereo not drawn)	> 15.5	> 15.5	
Nc1c2ccccc2nc2nccnc12	> 26.3	> 26.3	
CCC(CO)COC(=O)/C=C/C(=O)OCC(CC)CO (stereo not drawn)			inactive
O=c1[nH]c(=O)n(C2CC(O)C(CO)O2)cc1C#Cc1ccc(C(F)(F)F)cc1 (stereo not drawn)	> 631	91.2	
O=[N+]([O-])c1ccc(-c2cc(O)c3nc4ccccc4n3c2)cc1	178	> 200	
CN(C)c1ccc2c(c1)-c1cc(N(C)C)ccc1C2=CC=C1C(=O)NC(=O)NC1=O	> 3.39	> 3.39	
COc1ccc(C2Oc3cc(OC)ccc3C(=O)C2c2ccccc2)cc1 (stereo not drawn)	> 200	31.6	
C/C=C/C=Nc1c(C#N)c2n(c1C(=O)Nc1ccc(S(N)(=O)=O)cc1)CCC2	> 200	11	
C#Cc1cc(CN(CC(=O)OC(C)(C)C)CC(=O)OC(C)(C)C)nc(CN(CC(=O)OC(C)(C)C)CC(=O)OC(C)(C)C)c1	> 11.5	0.204	
O=S1(=O)c2ccccc2N=C(c2ccccc2Cl)CC1c1ccc(F)cc1 (stereo not drawn)	> 14.8	10.5	
O=c1[nH]c(=S)[nH]c2c1sc(=S)n2-c1ccccc1	> 89.1	> 89.1	

SMILES	EC50 [µM]	IC50 [µM]	outcome
Clc1ccc2c(NCCCCN3OC3c3ccccc3)ccnc2c1 (stereo not drawn)	> 200	5.01	
Cc1cccc2c1OC(=O)C1CNCOC21 (stereo not drawn)	> 200	33.1	
CCc1cn(C2CC(CO)C(CO)S2)c(=O)[nH]c1=O (stereo not drawn)	> 200	> 200	
CCOP1(=O)OCC(C(C)(C)C)CO1 (stereo not drawn)	> 200	> 200	
CCN(/N=C1\CC2C=CCN(C2)C(=O)Cc2c1[nH]c1ccccc21)S(=O)(=O)c1ccc(C)cc1 (stereo not drawn)	> 63.1	60.3	
COC(=O)c1cc(C)n(NC(=O)OC(C)(C)C)c1C	> 251	> 251	
NCCNCCN1C(=O)c2cccc3cccc(c23)C1=O	> 200	7.59	
COc1ccc2nc3cccc([N+](=O)[O-])c3c(NCCCO)c2c1	> 2	0.017	
Cc1ccc(S(=O)(=O)N/N=c2\c(C)c(C3=NS(=O)(=O)c4cc(S(N)(=O)=O)c(Cl)cc4N3)oc3c(Cl)cc(Cl)cc23)cc1	> 69.2	> 69.2	
COC(=O)c1sc(=NC(=S)N2CCCCC2)sc1C(=O)OC			inactive
CC(NNC(=O)c1ccncc1)c1ccc(F)cc1 (stereo not drawn)	> 200	12.3	
O=CNc1ccc(S(=O)(=O)c2ccc([N+](=O)[O-])cc2)cc1	> 200	30.2	
COc1cc(N=Nc2c(S(=O)(=O)O)cc3cc(NC(=O)Nc4ccc5c(O)c(N=Nc6ccc7cc(S(=O)(=O)O)ccc7c6)c(S(=O)(=O)O)cc5c4)ccc3c2O)c(C)cc1N			active
CC(C)CC(NC(=O)OCc1ccccc1)C(=O)NCCCCC(N)C(=O)NC(CCCCNC(=O)C(CC(C)C)NC(=O)OCc1ccccc1)C(=O)NC(CCCCNC(=O)C(CC(C)C)NC(=O)OCc1ccccc1)C(=O)NC(CCCCNC(=O)C(CC(C)C)NC(=O)OCc1ccccc1)C(=O)NC(CCCCNC(=O)C(CC(C)C)NC(=O)OCc1ccccc1)C(=O)NC(CCCCNC(=O)C(CC(C)C)NC(=O)OCc1ccccc1)C(=O)O (stereo not drawn)	> 100	> 100	
COc1c(Br)cc(Br)c(OC)c1-c1ccc[nH]1	> 38	> 38	
CCC1(O)CC(CCN(Cc2ccccc2)C(=O)OCc2ccccc2)C(OCc2ccccc2)C1O (stereo not drawn)	> 200	9.12	
